Data as given in US20070203202A1, “Methods of reducing adverse events associated with pirfenidone therapy” (priority 2005, published 2007).
Where two headings read alike, the source gives them in different places.

How the values were obtained:
TNF-α = conditions: macrophages and other cells; Cain et al. 1998; cited from earlier work
[1] = Pharmacokinetics of an 801 mg pirfenidone dose taken with or without food; format: in vivo, human; conditions: for half-life: human, plasma, oral, 801 mg, read-out: mean absorption half life (converted)
Method: (§1) A study was designed to evaluate the effect of food, antacids, and food taken with antacids on adverse events associated with pirfenidone use. The trial was conducted as a randomized, open-label, four-treatment crossover, with a single dose for each treatment period and a 2-day washout period between study treatments. 16 healthy adults between the ages of 50 and 79 years having body mass indices between 18 and 30 (inclusive) were enrolled and completed all 4 treatment arms. The treatment arms were as follows:
(§2) All subjects were admitted to the clinic for clinical evaluation the day prior to receiving the first dose of the study medication and remained confined for 13 days. Following an overnight fast of at least 10 hours (h), subjects were randomized to one of the above-described 4 treatment sequences. Each dose of pirfenidone (3×267 mg capsules) was administered orally with 240 mL room temperature water on days 1, 4, 7, and 10 in the morning, following an overnight fast of at least 10 hours. The washout period between treatments was 2 days. A standard meal consisted of 2 fried eggs, 2 strips of bacon, 2 slices of toast, 2 pats of butter, hash brown potatoes (4 oz), and whole milk (8 oz).
Of 7 subjects who reported nausea, 5 of 16 (31%) were fasted compared to only 2 of 16 (13%) fed subjects. Of 5 subjects reporting dizziness, 4 of 16 (25%) were fasted, while only 1 of 16 (6%) was fed. Of 3 subjects reporting somnolence, 2 of 16 (13%) were fasted and 1 of 16 (6%) were fed. Of 3 subjects reporting headaches, 2 of 16 (13%) were fasted and 1 of 16 (6%) were fed.

[2] = Multiple-dose escalating-dose study of adverse events, doses taken with food; format: in vivo, human; conditions: 801 to 4005 mg/day escalating
Method: A second study was designed to examine incidences of adverse events on multiple ascending daily doses of pirfenidone. The trial was conducted as an open-label, escalating-dose study with no washout period between dose escalations. 25 healthy adults between the ages of 45 and 79 (inclusive) having body mass indices between 18 and 30 (inclusive) were enrolled. 22 adults completed the treatment. Each volunteer received from 801 mg/day to 4005 mg/day of pirfenidone divided into three equal doses as follows:
All subjects were admitted to the clinic for clinical evaluation the day before the first dose of study medication and remained confined for 17 days. Each subject received all dose levels of the study drug unless adverse events or the clinical judgment of the trial physician precluded the continuation of treatment. All doses were taken with 240 mL room temperature water and with food (excluding grapefruit juice). TID doses times were ˜0800, ˜1200, and ˜1800.

[3] = Single-dose four-treatment crossover study of the effect of food and antacid on adverse events; format: in vivo, human; conditions: for subjects who experienced an adverse event: single oral dose 3×267 mg, 16 healthy adults
Method: as §1
A) pirfenidone alone (Fasted);
B) pirfenidone within 1 minute following a dose of antacid (20 mL Mylanta® Maximum Strength Liquid) (Fasted+Antacid);
C) pirfenidone 5 minutes after completing a standard meal (Fed); and
D) pirfenidone 5 minutes after completing a standard meal, then within 1 minute, followed by a dose of antacid (Fed+Antacid).
as §2
On each study day, adverse events were reviewed with the patients as follows. Before administration of the first dose of the study drug, study site personnel noted the occurrence and nature of each subject's medical condition(s). During the trial, site personnel again noted any change in the condition(s) or occurrence and nature of any adverse events. The severity of adverse events were graded based on the Modified Common Toxicity Criteria and the relationship of the study drug to the adverse event determined.

[4] = system: fibrogenic cytokines such as TGF-β1, bFGF, PDGF, and EGF; conditions: Zhang S et al. 1998; cited from earlier work
[5] = 801 mg pirfenidone without food

- mean maximum plasma concentration ([1]; 801 mg pirfenidone with food): 7874 ng/mL
- mean maximum plasma concentration [1, 5]: 15724 ng/mL
- half-life ([1]; 801 mg pirfenidone with food): 1.78 h
- half-life [1, 5]: 0.572 h
SMILES: Cc1ccc(=O)n(-c2ccccc2)c1 [pirfenidone, 5-methyl-1-phenyl-2-(1H)-pyridone]
- effect on synthesis and release of TNF-α (TNF-α): blocks the synthesis and release of excessive amounts of TNF-α
- subjects with at least one adverse event ([2]; TID with food, 23 of 25 healthy adults): 92%
- incidence of headache ([2]; with food, 7 of 25): 28%
- incidence of somnolence ([2]; with food, 8 of 25): 32%
- incidence of nausea ([2]; with food, 9 of 25): 36%
- subjects with adverse events in whom the adverse events were mild ([2]; with food, 22 of the 23 subjects): 95%
- incidence of somnolence ([3]; all arms, 4 of 16): 25%
- incidence of dizziness ([3]; all arms, 6 of 16): 38%
- incidence of nausea ([3]; all arms, 7 of 16): 44%
- subjects with adverse events in whom the adverse events were mild ([3]; all arms, 8 of the 12 subjects with an adverse event): 66.7%
- subjects with at least 1 adverse event in total ([3]; all four treatment arms, 12 of 16 subjects): 75%
- incidence of headaches ([3]; fasted, 2 of 16): 13%
- incidence of somnolence ([3]; fasted, 2 of 16): 13%
- incidence of dizziness ([3]; fasted, 4 of 16): 25%
- incidence of nausea ([3]; fasted, 5 of 16): 31%
- incidence of dizziness ([3]; fed, 1 of 16): 6%
- incidence of headaches ([3]; fed, 1 of 16): 6%
- incidence of somnolence ([3]; fed, 1 of 16): 6%
- incidence of nausea ([3]; fed, 2 of 16): 13%
- subjects who experienced an adverse event ([3]; pirfenidone alone without food (Fasted)): 56.3%
- subjects who experienced an adverse event ([3]; with food (Fed)): 31.3%
- subjects who experienced an adverse event ([3]; with food and antacid (Fed+Antacid)): 25%
- subjects who experienced an adverse event ([3]; within 1 minute following a dose of antacid (Fasted+Antacid)): 56.3%
- effect on biosynthesis or release of fibrogenic cytokines [4]: inhibits excessive biosynthesis or release
